Assay results reported in patent US10052320B2, “Substituted quinoxalines as FGFR kinase inhibitors” (ASTEX THERAPEUTICS LIMITED, priority 2011, dated 2018).
Several values for one entry are separate records, joined by “and”; a condition that tells them apart may be missing. Equal entries are not always repeated.

Key:
[1] = target: Ba/F3-FGFR3-transfected cells (Homo sapiens, UniProt P22607); assay: Ba/F3-FGFR3 (minus IL3) cellular proliferation assay, Alamar Blue; assay type: cell-based; conditions: for BAF3-FGFR 3 (MIN IL3) 384 well pIC50: minus IL3, 384 well; for BAF3-FGFR 3 (MIN IL3) 96 well pIC50: minus IL3, 96 well
Ba/F3-FGFR3-transfected cells, sequence (P22607 whole entry, change not shown): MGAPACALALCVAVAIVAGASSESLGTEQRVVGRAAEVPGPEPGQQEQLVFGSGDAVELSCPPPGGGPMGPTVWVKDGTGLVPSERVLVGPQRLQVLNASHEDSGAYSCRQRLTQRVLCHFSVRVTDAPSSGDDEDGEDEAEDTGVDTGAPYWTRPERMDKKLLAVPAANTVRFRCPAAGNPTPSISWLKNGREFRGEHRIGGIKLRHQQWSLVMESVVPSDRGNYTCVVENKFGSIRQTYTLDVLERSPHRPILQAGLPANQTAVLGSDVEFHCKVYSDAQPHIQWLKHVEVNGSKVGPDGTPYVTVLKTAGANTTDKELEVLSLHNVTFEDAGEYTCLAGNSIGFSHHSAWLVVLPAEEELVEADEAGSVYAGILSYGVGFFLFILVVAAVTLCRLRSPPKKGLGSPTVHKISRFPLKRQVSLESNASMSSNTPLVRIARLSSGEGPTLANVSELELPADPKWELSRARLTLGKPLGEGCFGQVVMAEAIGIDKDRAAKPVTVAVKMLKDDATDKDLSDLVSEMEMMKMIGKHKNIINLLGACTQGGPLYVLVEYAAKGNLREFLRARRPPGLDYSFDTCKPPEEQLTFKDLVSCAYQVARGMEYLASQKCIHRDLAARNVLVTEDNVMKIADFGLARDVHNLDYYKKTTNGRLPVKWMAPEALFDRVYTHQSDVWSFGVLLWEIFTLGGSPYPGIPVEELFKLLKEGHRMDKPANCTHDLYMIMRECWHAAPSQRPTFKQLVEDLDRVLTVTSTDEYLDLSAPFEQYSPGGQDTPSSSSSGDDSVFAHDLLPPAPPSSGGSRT
How it was run: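 With or without 10 ng/ml murine IL3, transfected Ba/F3-FGFR3 cells in serum-containing RPMI-1640 receive compound for 24 h at 37 °C. Growth is then gauged by resazurin conversion over 4 h, read as relative fluorescence units.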

FGFR2 (h) = FGFR2 (h) (Homo sapiens, UniProt P21802); assay: FGFR2 (enzymatic assay), TR-FRET; assay type: biochemical; conditions: read-out: FGFR 2 pIC50 (converted)
FGFR2 (h), sequence (P21802 22-821): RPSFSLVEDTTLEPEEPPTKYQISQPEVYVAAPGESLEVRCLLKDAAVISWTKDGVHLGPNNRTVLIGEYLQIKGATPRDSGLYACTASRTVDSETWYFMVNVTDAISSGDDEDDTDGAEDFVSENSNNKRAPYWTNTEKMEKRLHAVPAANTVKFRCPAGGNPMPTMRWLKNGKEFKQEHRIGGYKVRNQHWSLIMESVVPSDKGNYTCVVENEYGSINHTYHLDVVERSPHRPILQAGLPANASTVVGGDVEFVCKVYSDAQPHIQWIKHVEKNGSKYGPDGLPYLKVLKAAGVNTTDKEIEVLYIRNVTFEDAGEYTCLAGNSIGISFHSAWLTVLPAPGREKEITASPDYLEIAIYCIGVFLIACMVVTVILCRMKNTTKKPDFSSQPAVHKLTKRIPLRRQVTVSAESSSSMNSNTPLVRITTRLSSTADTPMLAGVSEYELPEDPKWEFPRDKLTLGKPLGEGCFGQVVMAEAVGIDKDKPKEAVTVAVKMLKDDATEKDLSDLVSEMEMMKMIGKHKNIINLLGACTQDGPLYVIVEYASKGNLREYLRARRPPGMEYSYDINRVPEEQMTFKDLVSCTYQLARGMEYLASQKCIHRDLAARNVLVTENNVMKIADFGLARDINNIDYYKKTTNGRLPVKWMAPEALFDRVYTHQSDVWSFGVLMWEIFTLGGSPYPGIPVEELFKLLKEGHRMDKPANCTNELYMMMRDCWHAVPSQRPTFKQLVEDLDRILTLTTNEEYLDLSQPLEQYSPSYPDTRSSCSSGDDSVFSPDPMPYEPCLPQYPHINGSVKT
Procedure: In a final reaction volume of 30 μL, FGFR2 (h) (150 ng/ml) was incubated with 50 mM HEPES pH 7.5, 6 mM MnCl2, 1 mM DTT, 0.1 mM Na3VO4, 0.01% Triton-X-100, 500 nM Btn-Flt3 and 0.4 μM ATP in the presence of compound (1% DMSO final). […] Time-Resolved Fluorescence Resonance Energy Transfer (TR-FRET) signal (ex340 nm. Em 620 nm, em 655 nm) was measured afterwards and results are expressed in (Relative Fluorescence Units).

[2] = tested on: Ba/F3-Flt3-transfected cells in the presence of 10 ng/ml murine IL3; assay: Ba/F3-Flt3 (plus IL3) cellular proliferation counterscreen, Alamar Blue; assay type: cell-based; conditions: Mus musculus; plus 10 ng/ml murine IL3; read-out: BAF3-FLT3 (PLUS IL3) 384 well pIC50 (converted)
[3] = target: T1, Ba/F3-Flt3-transfected cells (Homo sapiens, UniProt P36888, cells depend on it, form not given); assay: Ba/F3-Flt3 (minus IL3) cellular proliferation assay, Alamar Blue; assay type: cell-based; conditions: minus IL3
T1 sequence (P36888 1-993): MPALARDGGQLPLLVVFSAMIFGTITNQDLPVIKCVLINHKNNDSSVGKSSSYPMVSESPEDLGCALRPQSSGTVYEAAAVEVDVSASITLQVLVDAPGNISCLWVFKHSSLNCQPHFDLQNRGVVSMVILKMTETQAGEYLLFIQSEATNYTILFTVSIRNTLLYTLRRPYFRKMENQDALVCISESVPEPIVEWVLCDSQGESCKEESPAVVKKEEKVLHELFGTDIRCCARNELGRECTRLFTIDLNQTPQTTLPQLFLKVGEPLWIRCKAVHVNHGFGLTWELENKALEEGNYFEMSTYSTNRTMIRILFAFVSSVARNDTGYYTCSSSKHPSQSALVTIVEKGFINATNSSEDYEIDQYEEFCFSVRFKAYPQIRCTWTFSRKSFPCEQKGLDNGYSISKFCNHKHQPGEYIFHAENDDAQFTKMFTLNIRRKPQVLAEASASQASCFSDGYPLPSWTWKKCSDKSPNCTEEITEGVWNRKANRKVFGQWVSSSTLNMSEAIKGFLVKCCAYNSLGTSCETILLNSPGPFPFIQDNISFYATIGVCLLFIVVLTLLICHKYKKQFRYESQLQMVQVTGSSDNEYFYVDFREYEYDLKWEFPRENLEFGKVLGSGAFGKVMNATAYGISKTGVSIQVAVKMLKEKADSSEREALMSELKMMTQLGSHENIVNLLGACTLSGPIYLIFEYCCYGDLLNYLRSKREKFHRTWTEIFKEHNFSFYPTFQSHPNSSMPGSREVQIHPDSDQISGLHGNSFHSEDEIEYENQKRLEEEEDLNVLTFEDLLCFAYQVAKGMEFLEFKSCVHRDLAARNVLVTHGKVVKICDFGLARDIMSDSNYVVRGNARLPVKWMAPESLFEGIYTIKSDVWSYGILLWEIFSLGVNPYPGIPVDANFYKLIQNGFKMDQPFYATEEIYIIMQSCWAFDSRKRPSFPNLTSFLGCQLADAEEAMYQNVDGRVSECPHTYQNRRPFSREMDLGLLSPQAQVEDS

COc1cc(OC)cc(N(CCO)c2ccc3ncc(-c4ccncc4)nc3c2)c1 [Compound 11]
BAF3-FGFR 3 (MIN IL3) 384 well pIC50 [1]: 6.65
IC50 (FGFR2 (h)): 0.0141 µM
IC50 [2]: > 10 µM
melting point: 158 °C
BAF3-FLT3 (MIN IL3) 384 well pIC50 [3]: <5

COc1cc(OC)cc(N(CCNC(C)C)c2ccc3ncc(-c4ccncc4)nc3c2)c1 [Compound 12]
BAF3-FGFR 3 (MIN IL3) 384 well pIC50 [1]: ~7.03
IC50 (FGFR2 (h)): 0.00245 µM
IC50 [2]: > 10 µM
melting point: 118 °C
BAF3-FLT3 (MIN IL3) 384 well pIC50 [3]: 5.14

CNC(=O)c1cc(-c2cnc3ccc(N(CCNC(C)C)c4cc(OC)cc(OC)c4)cc3n2)ccn1 [Compound 14]
BAF3-FGFR 3 (MIN IL3) 384 well pIC50 [1]: 7.03
IC50 (FGFR2 (h)): 0.00562 µM
IC50 [2]: > 10 µM
melting point: 68 °C
BAF3-FLT3 (MIN IL3) 384 well pIC50 [3]: 5.02

COc1cc(OC)cc(N(CCNC(C)C)c2ccc3ncc(-c4ccc(N)nc4)nc3c2)c1 [Compound 17]
BAF3-FGFR 3 (MIN IL3) 384 well pIC50 [1]: ~7.09
IC50 (FGFR2 (h)): 0.00211 µM
IC50 [2]: > 9.55 µM
melting point: 144 °C
BAF3-FLT3 (MIN IL3) 384 well pIC50 [3]: 5.17

COc1cc(OC)cc(N(CC2CC2)c2ccc3ncc(C#Cc4ccncc4)nc3c2)c1 [Compound 23]
BAF3-FGFR 3 (MIN IL3) 96 well pIC50 [1]: 5.66
BAF3-FGFR 3 (MIN IL3) 384 well pIC50 [1]: 5.1
IC50 (FGFR2 (h)): 0.427 µM
IC50 [2]: > 10 µM
melting point: 60 °C
BAF3-FLT3 (MIN IL3) 96 well pIC50 [3]: 5.31
BAF3-FLT3 (MIN IL3) 384 well pIC50 [3]: <5

COc1cc(OC)cc(N(CC2CC2)c2ccc3ncc(-c4cn(CCN5CCOCC5)nn4)nc3c2)c1 [Compound 24]
BAF3-FGFR 3 (MIN IL3) 96 well pIC50 [1]: 5.59
BAF3-FGFR 3 (MIN IL3) 384 well pIC50 [1]: ~5.7
IC50 (FGFR2 (h)): 0.0251 µM
IC50 [2]: > 10 µM
melting point: 128 °C
BAF3-FLT3 (MIN IL3) 96 well pIC50 [3]: <5
BAF3-FLT3 (MIN IL3) 384 well pIC50 [3]: <5

CNC(=O)c1cc(-c2cnc3ccc(N(CCN4CCCC4=O)c4cc(OC)cc(OC)c4)cc3n2)ccn1 [Compound 25]
BAF3-FGFR 3 (MIN IL3) 384 well pIC50 [1]: 5.13
IC50 (FGFR2 (h)): 0.251 µM
IC50 [2]: > 10 µM
melting point: 176 °C
BAF3-FLT3 (MIN IL3) 384 well pIC50 [3]: <5

COc1cc(OC)cc(N(CC2CC2)c2ccc3ncc(-n4cnc(C)c4)nc3c2)c1 [Compound 30]
BAF3-FGFR 3 (MIN IL3) 96 well pIC50 [1]: 5.94
BAF3-FGFR 3 (MIN IL3) 384 well pIC50 [1]: 5.51
IC50 (FGFR2 (h)): 0.0676 µM
IC50 [2]: > 10 µM
melting point: 113 °C
BAF3-FLT3 (MIN IL3) 96 well pIC50 [3]: 5.06
BAF3-FLT3 (MIN IL3) 384 well pIC50 [3]: <5

COc1cc(OC)cc(N(CC2CC2)c2ccc3ncc(-n4ccc(C)n4)nc3c2)c1 [Compound 31]
BAF3-FGFR 3 (MIN IL3) 96 well pIC50 [1]: <5
BAF3-FGFR 3 (MIN IL3) 384 well pIC50 [1]: <5
IC50 (FGFR2 (h)): > 1 µM
IC50 [2]: > 10 µM
melting point: 107 °C
BAF3-FLT3 (MIN IL3) 96 well pIC50 [3]: <5
BAF3-FLT3 (MIN IL3) 384 well pIC50 [3]: <5

COc1cc(OC)cc(N(CCCO)c2ccc3ncc(-c4ccnc(C(=O)NCCCN)c4)nc3c2)c1 [Compound 33]
BAF3-FGFR 3 (MIN IL3) 384 well pIC50 [1]: 5.51
IC50 (FGFR2 (h)): 0.0229 µM
IC50 [2]: > 10 µM
melting point: 110 °C
BAF3-FLT3 (MIN IL3) 384 well pIC50 [3]: <5

COc1cc(OC)cc(N(CC2CC2)c2ccc3ncc(-c4cn(CCO)nn4)nc3c2)c1 [Compound 40]
BAF3-FGFR 3 (MIN IL3) 96 well pIC50 [1]: 5.04
BAF3-FGFR 3 (MIN IL3) 384 well pIC50 [1]: ~5.15
IC50 (FGFR2 (h)): 0.0891 µM
IC50 [2]: > 10 µM
melting point: 178 °C and 177 °C
BAF3-FLT3 (MIN IL3) 96 well pIC50 [3]: <5
BAF3-FLT3 (MIN IL3) 384 well pIC50 [3]: <5

COc1cc(OC)cc(N(CC2CC2)c2ccc3ncc(-c4nnn[nH]4)nc3c2)c1 [Compound 41]
BAF3-FGFR 3 (MIN IL3) 96 well pIC50 [1]: <5
BAF3-FGFR 3 (MIN IL3) 384 well pIC50 [1]: <5
IC50 (FGFR2 (h)): 0.178 µM
IC50 [2]: > 10 µM
melting point: 216 °C
BAF3-FLT3 (MIN IL3) 96 well pIC50 [3]: <5
BAF3-FLT3 (MIN IL3) 384 well pIC50 [3]: <5
